Measurements: PMC8318231, “Rate-of-Kill (RoK) assays to triage large compound sets for Chagas disease drug discovery: Application to GSK Chagas Box” (PLoS Neglected Tropical Diseases, 2021)

System: T. cruzi intracellular amastigotes in H9c2 cells
Assay: Rate-of-Kill (RoK) high-content imaging assay, amastigotes per cell (AM/CELL) and curve descriptors
Assay type: cell-based, Trypanosoma cruzi
Parameters: key to ME_24h / ME_48h / ME_72h: % reduction in parasite burden (cidal response); t50pct_MCC50 / t50pct_Cmax: unit not given here
Settings: for ME_24h: 24h; for ME_48h: 48h; for ME_72h: 72h; for AM/CELL NORM: sheet figure 4 A; for tlag_Cmax / t50pct_Cmax / t50%_Cmax: at Cmax; for ME_24h (%): maximum effect at 24 h; for ME_24h (%) / ME_48h (%) / ME_72h (%): RoK assay; for ME_48h (%): maximum effect at 48 h; for ME_72h (%): maximum effect at 72 h; for ME 24h (maximum effect at 24 hours, intracellular amastigotes): maximum percentage of parasite burden reduction reached by any concentration
Experimental: For this high-content intracellular imaging assay, H9c2 cells were seeded in 225 cm^2 T- FLASK in DMEM with 10% FBS for 4 h to allow attachment. T. cruzi trypomastigotes, collected at days 5 to 8 after infection from LLC-MK2 parasite infected cultures, were allowed to swim out for 4 h at 37°C from a centrifuged pellet (1,600 x g / 10 min). Trypomastigotes were then collected and counted in a CASY Cell Counter using the 60 μm capillary. Trypomastigotes, in supplemented DMEM, were added to H9c2 cultures in a multiplicity of infection (MOI) of 8 and incubated for 18 h. Cells were washed once with PBS before incubation of the infected H9c2 monolayer with trypsin (Life-Technologies) to detach cells from the flask. Cells were counted in a CASY Cell Counter, using the 150 μm capillary, and their density set at 5 x 10^4 cells/mL in supplemented DMEM. Infected H9c2 were dispensed into 384-well plates at 50 μL per well using a Multidrop Combi dispenser. Control wells used to determine a 100% parasitic growth (full 6th column of each plate) were left untreated, whereas not infected cells were added in the control wells used as 0% parasite growth (or 100% parasite growth inhibition; full 18th column of each plate). The four plates corresponding to each RoK assay were predispensed for the same mother plate. […] Cultures were then fixed and stained with 50 μL per well of a PBS solution containing 4% formaldehyde and 2 μM DRAQ5 DNA dye (BioStatus, UK). Then plates were read in a PerkinElmer Opera Phenix using a 20x objective, 3 fields per well. DRAQ5 signal was detected using 640 nm excitation laser and a 690/50 nm emission detection filter. Automated image analysis was performed with a script developed on Acapella High Content Imaging and Analysis Software (PerkinElmer). Two outputs were provided for each sample well: (1) number of host cells nuclei to determine drug-related cytotoxicity (aka H9c2) and (2) number of amastigotes per cell as infection level measurement (aka AM/CELL). Each output is plotted as a time course for each compound at every concentration. This assay was adapted from Alonso-Padilla et al. and Peña et al..
To identify and classify the different compounds, the number of amastigotes per cell (AM/CELL) raw data obtained in rate of kill assay are normalised using the average of C1 (infected cells) at time 4 hours as 0% effect and the average of C2 (non-infected cells) for each time as 100% effect, according to the following Eq 1: %CIDALRESPONSE=100*[Avg_C14h-RawData]/[Avg_C14h-Avg_C2] (1)
• ME (Maximum Effect) is the maximum percentage of parasite burden reduction reached by any compound concentration. Compounds that decrease the initial parasite load will show a positive value of ME, whereas compounds that allow the progression of infection will render a negative ME value. […] It is calculated for the MCC50 (t50%_MCC50) and for the maximum concentration (t50%_Cmax). […] The value of this parameter is not either interpolated or extrapolated, and it refers to the first experimental time-course point at which a 50% of effect is reached or exceeded. • tlag defines the time elapsed for one particular concentration to reduce parasite burden between two consecutive points at any moment of the time course. It is calculated for the MCC50 (tlag_MCC50) and for the maximum concentration (tlag_Cmax). The value of this parameter is not either interpolated or extrapolated, and it refers to the first experimental time-course point of a positive slope in the normalised plot (i.e. %Cidal_Response). • Cmin_Tox (Minimal CytoToxic Concentration) is the lowest compound concentration that is reducing the number of host mammalian cells below 50% of initial cell density. Cytotoxic compounds may mislead a bona fide antiparasitic action.

Structure (SMILES) | ME_24h (figure 5) | ME_48h (figure 5) | ME_72h (figure 5) | MCC50 (RoK curve descriptor) | MCCE (RoK curve descriptor) | AM/CELL NORM (Time 4) | AM/CELL NORM (Time 24) | AM/CELL NORM (Time 48) | AM/CELL NORM (Time 72) | tlag_Cmax | t50pct_Cmax (figure 5) | tlag_Cmax (figure 5) | t50%_MCC50 (at MCC50) | t50pct_MCC50 (at MCC50, figure 5) | tlag_MCC50 (at MCC50, figure 5) | MCCE (figure 5) | ME_24h (%) | ME_48h (%) | ME_72h (%) | ME 24h (maximum effect at 24 hours, intracellular amastigotes) | further results
CS(=O)(=O)c1cccc(CNC(=O)c2cncc(N3CCN(c4ccc(F)cc4)CC3)c2)c1.O=C(O)C(F)(F)F.O=C(O)C(F)(F)F.O=C(O)C(F)(F)F [TCMDC-143385] | -140.527 | 14.5657 | 58.9567 | 1.9 µM | 8.6 µM | -2.309 | -204.359 | 18.8519 | 47.2855 | 24.0 h | 72 | 24 | 72.0 h | 72 | 48 | 8.642 | -140.5% | 14.6% | 59.0% | -76.6949% | tlag_MCC50 (at MCC50): 24.0 h; MCC50 (figure 5, in µM): 25.9259
COc1ccc2ncc(=O)n(CCN3CCOC(CNCc4ccc(C(F)(F)F)cc4F)C3)c2n1 (stereo not shown) [TCMDC-143384] | -27.6403 | -15.9254 | -18.8553 |  | 0.6 µM | -15.3138 | -27.6403 | -15.9254 | -18.8553 | 24.0 h | 72 | 24 |  | 72 | 72 | 0.6173 | -27.6% | -15.9% | -18.9% | -27.6403% | MCC50 (figure 5): 50 µM
CCCCNc1nccc(-c2c(-c3ccc(F)cc3)nn3c(N4CCOCC4)cccc23)n1 [TCMDC-143617] | -170.943 | -538.575 | -488.335 |  | 5.6 µM | -16.0226 | -225.539 | -1143.86 | -2417.88 | 72.0 h | 72 | 72 |  | 72 | 72 | 5.556 | -170.9% | -538.6% | -488.3% | -170.943% | MCC50 (figure 5): 50 µM
O=C(O)C(F)(F)F.O=c1oc2ccccc2n1C1CCN(Cc2ccccc2-c2cccnc2)CC1 [TCMDC-143389] | -205.37 | -40.6003 | 54.0373 | 5.6 µM | 0.2 µM | -7.014 | -205.37 | -40.6003 | 17.0901 | 24.0 h | 72 | 24 | 72.0 h | 72 | 24 | 0.2058 | -205.4% | -40.6% | 54.0% | -205.37% | tlag_MCC50 (at MCC50): 24.0 h; MCC50 (figure 5, in µM): 5.556
O=C1CSC(c2cccnc2)N1c1ccc(Cl)cc1Cl (stereo not shown) [TCMDC-143114] | -4.949 | 48.1247 | 74.0117 | 50.0 µM | 0.6 µM | 4.621 | -4.949 | 48.1247 | 74.0117 | 24.0 h | 72 | 24 | 72.0 h | 72 | 24 | 0.6173 | -5.0% | 48.1% | 74.0% | -4.949% | t50%_Cmax: 72.0 h; tlag_MCC50 (at MCC50): 24.0 h; MCC50 (figure 5): 50 µM
N#Cc1cc(N2CCCC2=O)ccc1Sc1ccccc1CO [TCMDC-143604] | -55.9743 | 36.5881 | 78.1794 | 1.9 µM | 0.6 µM | 9.146 | -84.052 | 29.3818 | 78.3167 | 24.0 h | 72 | 24 | 72.0 h | 72 | 24 | 0.6173 | -56.0% | 36.6% | 78.2% | -55.4036% | t50%_Cmax: 72.0 h; tlag_MCC50 (at MCC50): 24.0 h; MCC50 (figure 5, in µM): 1.852
Cn1cncc1CN1CCC2(CC1)COC(Cc1ccccc1)C2 (stereo not shown) [TCMDC-143502] | -3.518 | 29.7799 | 64.8887 | 5.6 µM | 1.9 µM | 12.5806 | -3.518 | -12.3342 | 16.2947 | 48.0 h | 72 | 48 | 72.0 h | 72 | 24 | 1.852 | -3.5% | 29.8% | 64.9% | -3.518% | tlag_MCC50 (at MCC50): 24.0 h; MCC50 (figure 5, in µM): 5.556
Cc1ccc(C)c(OC2CCN(C(=O)C(C)n3ccnc3)CC2)c1 (stereo not shown) [TCMDC-143481] | -18.0648 | -41.8218 | 55.4241 | 5.6 µM | 0.6 µM | -1.4032 | -18.0648 | -41.8218 | 1.753 | 48.0 h | 72 | 48 | 72.0 h | 72 | 48 | 0.6173 | -18.1% | -41.8% | 55.4% | -18.0648% | tlag_MCC50 (at MCC50): 48.0 h; MCC50 (figure 5, in µM): 5.556
